From patent publication US9006221B2, “Method of modulating ship activity” (H. Lee Moffitt Cancer Center and Reserach Institute, Inc., priority 2008, dated 2015)

How the values were obtained:
[1] = tested on: priming of allogeneic T cell responses by C57Bl6/J splenocytes; experiment: One-way mixed leukocyte reaction (MLR), stimulator splenocytes treated in vitro; type: cell-based, mouse; details: splenocytes cultured with compound 72 hr, added at 0, 24 and 48 hr
Protocol: Mean proliferation of 100K BALB/C responders as measured by ^3H-Thymidine uptake after exposure to 200K irradiated BL6 stimulators that were treated with the indicated compound, 1×DMSO or 1× EtOH prior to initiation of the mixed leukocyte reaction (MLR). 1×DMSO serves as the allogeneic MLR positive control for all compounds with the exception of HLM85321 for which 1× EtOH is the positive control. [*p<0.05, **p<0.01].
Spleen cells and lymphe node LN cells are normally robust stimulators of allogeneic T cell responses in the one-way mixed leukocyte reaction (MLR) assay, but they are very poor stimulators when obtained from mice with germline or induced SHIP-deficiency. […]
Mixed leukocyte reactions (MLR): Following RBC lysis, irradiated (2000 Rads) BL6 splenocytes (stimulators) at 8×10^5 cells/well were combined with BALB/c splenocytes (responders) at 4×10^5 cells/well in a one-way MLR assay. […] Incorporated [3H]thymidine was quantitated using a Packard TopCount NXT. Specific [3H]thymidine incorporation into genomic DNA was calculated as the average of the mean (±SEM) of sextuplicate wells. […]

SHIP1 = target: T1, SHIP1 (Mus musculus, UniProt Q9ES52); experiment: Fluorescence polarization (FP) assay of SHIP1 enzymatic activity; type: biochemical; details: confirmatory FP assay of screening hits
T1 construct: The asterisk in lanes 1 and 3 indicates the ˜145 kD full-length SHIP protein; His tag (C); made in house; host or cells: E. coli Rosetta-Gami 2 (DE3) pLys
T1 sequence (Q9ES52 1-1191): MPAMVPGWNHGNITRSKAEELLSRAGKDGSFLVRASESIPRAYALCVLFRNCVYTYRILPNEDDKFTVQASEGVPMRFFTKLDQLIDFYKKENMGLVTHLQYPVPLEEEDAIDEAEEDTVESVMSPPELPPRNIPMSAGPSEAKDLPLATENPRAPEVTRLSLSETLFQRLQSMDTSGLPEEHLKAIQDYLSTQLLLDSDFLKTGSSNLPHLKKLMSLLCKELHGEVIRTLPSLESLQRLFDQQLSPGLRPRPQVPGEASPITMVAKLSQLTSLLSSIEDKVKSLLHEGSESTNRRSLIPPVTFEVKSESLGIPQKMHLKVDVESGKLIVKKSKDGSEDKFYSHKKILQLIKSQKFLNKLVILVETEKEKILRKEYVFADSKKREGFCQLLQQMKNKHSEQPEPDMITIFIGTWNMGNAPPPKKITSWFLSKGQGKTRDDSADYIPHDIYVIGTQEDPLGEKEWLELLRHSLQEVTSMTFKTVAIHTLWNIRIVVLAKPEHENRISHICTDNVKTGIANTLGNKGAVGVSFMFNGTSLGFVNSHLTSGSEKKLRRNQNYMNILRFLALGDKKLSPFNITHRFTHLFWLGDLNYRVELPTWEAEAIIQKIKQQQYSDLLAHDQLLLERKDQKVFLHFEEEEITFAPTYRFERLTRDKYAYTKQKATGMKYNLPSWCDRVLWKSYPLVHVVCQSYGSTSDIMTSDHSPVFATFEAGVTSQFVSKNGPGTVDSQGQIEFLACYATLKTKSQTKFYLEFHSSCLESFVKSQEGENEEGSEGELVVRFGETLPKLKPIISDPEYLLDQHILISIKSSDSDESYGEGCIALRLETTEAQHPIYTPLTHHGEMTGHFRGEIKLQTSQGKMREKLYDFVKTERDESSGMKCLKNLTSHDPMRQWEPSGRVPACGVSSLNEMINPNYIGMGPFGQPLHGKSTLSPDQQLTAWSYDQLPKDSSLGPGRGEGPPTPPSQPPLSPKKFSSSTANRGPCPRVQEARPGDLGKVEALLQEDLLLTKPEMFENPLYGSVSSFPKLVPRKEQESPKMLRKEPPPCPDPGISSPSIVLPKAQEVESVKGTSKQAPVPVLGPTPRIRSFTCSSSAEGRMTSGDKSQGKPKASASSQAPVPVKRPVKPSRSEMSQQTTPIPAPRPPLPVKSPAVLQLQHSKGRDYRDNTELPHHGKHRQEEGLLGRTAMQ
Excerpt: SHIP is detectable in this expression system as a ˜145 kD protein (FIG. 1a, lane 1). Because of an in-frame Histidine (His) tag on the COOH terminus of SHIP, it can then be purified from E. coli lysates by FPLC over a Ni-containing resin. (FIG. 1a, lane 3). Purified SHIP was routinely obtained in sufficient quantities, using this E. coli expression system and FPLC purification, to conduct high-throughput screening (HTS) of chemical libraries for compounds that inhibit SHIP activity. However, prior to screening, a fluorescence polarization (FP) assay that detects SHIP activity in either a 96- or […] format, seen in FIG. 1b, screen was established. SHIP generates PI(3,4)P2 from its PI(3,4,5)P3 substrate. In the FP assay enzymatic generation of PI(3,4)P2 by SHIP reduces polarized fluorescence (mP) because the fluorescent PI(3,4)P2 “probe” is displaced from a detector protein that binds specifically to PI(3,4)P2. The FP assay is highly specific for SHIP activity in these lysates. No significant 5′-inositol phosphatase activity was detected in E. coli lysates harboring an ‘empty’ pet24b expression vector insert when FPLC fractions where SHIP typically elutes with the imidazole step gradient are analyzed in the FP assay (FIG. 1c).
After preparing purified SHIP and establishing the FP assay, two different chemical libraries, comprising a total of ˜2100 different chemical compounds, were screened. Seventeen compounds capable of inhibiting SHIP activity at μM concentrations were identified in this screen. The compounds were verified for SHIP activity inhibition by repeating the FP assay with the compounds obtained from their respective wells in the replicates of the masterplates for these libraries FIGS. 2-6).
A fluorescence polarization (FP) assay to detect and quantify SHIP2 activity has been previously described [Drees B E, et al., Comb Chem High Throughput Screen (2003) 6(4):321-330], but no assay has been described for the detection of SHIP1. A fluorescence polarization (FP) assay was developed to detect the activity of recombinant SHIP1 (see FIGS. 15a and b) and the FP assay was utilized as a rapid screen to detect compounds in chemical libraries that have inhibitory activity against SHIP1. This screen identified 3α-aminocholestane as a potent inhibitor of SHIP1 enzymatic activity (FIG. 15c). […] This high degree of selectivity could be important, since loss of PTEN function promotes malignancy in parenchymal and hematopoietic tissues. [Yuan T L & Cantley L C Oncogene (2008) 27(41):5497-5510; Zhang J, et al., Nature (2006) 441(7092):518-522; Yilmaz O H, et al., Nature (2006) 441(7092):475-482]
Assay of SHIP1 enzymatic activity: A fluorescent polarization (FP) assay that detects the 5′-inositol phosphatase activity of SHIP1 was developed based on a previously established protocol [Drees B E, et al., Comb Chem High Throughput Screen (2003) 6(4):321-330] and was obtained from Echelon Biosciences (Salt Lake City, USA). Modifications of the protocol included the application of SHIP1 in the assay and an increase in the concentration of MgCl2 to […] to maximize the activity of SHIP1 in this assay. Each enzymatic reaction was performed in a 96 well working plate and added in the following order and concentration: Recombinant SHIP1 (0.1 μg) in PBS+20 mM MgCl2, 100 μM of each individual compound from the NCI Diversity Set and then PI(3,4,5)P3 substrate diluted 1:10 in H2O. The enzymatic reaction was incubated for 30 min at room temperature. The detector, reaction mixture and probe were then combined according to the SHIP2 protocol. Malachite Green Phosphatase Assay Kit was obtained from Echelon Biosciences (Salt Lake City, USA). Assays for SHIP2 were performed according to the manufacturer's protocol. The concentration of SHIP1 and SHIP2 per reaction mixture was […]. PTEN was used at the concentration recommended by the manufacturer.

Cc1ccc(C)c(/C(=N/N=C(N)N)C2CC2)c1.Cl [NSC75513, 2-[(E)-[cyclopropyl-(2,5-dimethylphenyl)methylidene]amino]guanidine chloride]
ability of splenocytes to prime allogeneic T cell responses by BALB/C responders (3H-thymidine uptake) [1]: significantly inhibited

O=C1CN2CCN(CC2)CC(=O)Nc2ccc(cc2)S(=O)(=O)c2ccc(cc2)NC(=O)CN2CCN(CC2)CC(=O)Nc2ccc(cc2)S(=O)(=O)c2ccc(cc2)N1 [NSC 36806]
SHIP inhibitory activity in FP assay (SHIP1): SHIP inhibitory activity

O=C1OC2(c3ccc(O)cc3Oc3cc(O)ccc32)c2c1c(-c1ccccc1)c(-c1ccccc1)c(-c1ccccc1)c2-c1ccccc1 [NSC 119886]
SHIP inhibitory activity in FP assay (SHIP1): SHIP inhibitory activity

CCOC(=O)c1c(C)c(C)n2c1NC(=O)C2 [NSC 624983]
SHIP inhibitory activity in FP assay (SHIP1): SHIP inhibitory activity
